Data from US20200131495A1, “PROTEINS DERIVED FROM CLPB AND USES THEREOF” (priority 2017, published 2020).

How the values were obtained:
[1] = system: intestinal tissues from rats (colons and ileums); assay: PYY secretion experiment in rat colons and ileums; assay type: cell-based; conditions: 10 nM, 20 min, control PBS, FIG. 6
Description: Colons and ileums were removed from male rats (Janvier Labs, Genest-Saint-Isle, France). They were washed with ice-cold PBS, then with ice-cold L-15 (Leibowitz) medium (PAA, Yeovil, UK). Then they were digested with 0.4 mg/mL collagenase XI (Sigma, Poole, UK) in High-Glucose DMEM (+1% L-Glutamine+1% Penicillin+1% Streptomycin+1% and non-essential amino acids) at 37° C. during 10 min. Cells suspensions were centrifuged (10 min at 400 g) and the pellets were resuspended in High-Glucose DMEM (the same that previously but with 10% Fetal Bovine Serum (FBS). Cell suspensions were filtered through a nylon mesh (pore size 100 Jpm) (Merck Millipore, Mass., USA) and plated onto 24 well, 1% Matrigel-coated plates (Corning, N.Y., US). The plates were incubated overnight at 37° C. in an atmosphere of […] and 5% CO2.
After 24 hours of culture, cells were incubated for 20 min in a water bath with secretion buffer (4 mM KCl, 138 mM NaCl, 1.2 mM NaHCO3, 1.2 mM NaH2PO4, 2.6 mM CaCl2), 1.2 mM MgCl2 and 10 mM HEPES) adjusted at pH 7.4) and full-length ClpB or the ˜25 kDa fragment at a concentration of 10 nM. […]
After incubation, the cells were treated with lysis buffer (50 mmol/L Tris-HCl, 150 mmol/L NaCl, 1% IGEPAL CA-630, 0.5% deoxycholic acid+cocktail of protease inhibitor tablets complete without EDTA) to extract intracellular peptides. […] Lysates were stored at −80° C. if not analyzed immediately. […]

[2] = Food intake of mice in BioDAQ cages after i.p. or oral administration; assay type: in vivo; conditions: for food intake in mice, oral administration: 60 pmol in 200 μL, FIG. 8
Description: Male C57/B16 mice were placed in the BioDAQ mouse cages (Research Diets, Inc., New Brunswick, N.J.) alone to measure the food intake. Each mouse was administered either physiological serum (n=6), full-length ClpB, or fragment of ˜25 kDa.
Two modes of administration were tested: intraperitoneal (i.p.) injection at a concentration of 2 pmol in a volume of 200 μL (n=8), and oral administration at a concentration of 60 pmol in a volume of 200 μL (n=10).

anti-α-MSH antibody = assay: Western blot revealed with anti-α-MSH antibody; assay type: binding, rabbit; conditions: FIG. 3 (trypsinised ClpB); FIG. 4 (colic mucosa, hypothalamus, plasma of mice and rats)
Description: First the fragmentation was performed on different conditions: ClpB diluted at 1/10 (from the stock at 5 mg/mL) and ClpB 1/10 with 0.0025% trypsin. Those different conditions were placed during 20 minutes at 37° C. After incubation, the fragmentation was immediately stopped by placing tubes on ice and western blot was performed.
After fragmentation, Leamli solution without J-mercaptoethanol was added into tubes to perform western on 20% acrylamide SDS gel in Tris-Glycine buffer (BioRad, Hercules, USA) and transferred to a nitrocellulose membrane (GE Healthcare, Orsay, France). Then, the membrane was blocked for at least 1 h at room temperature with 5% (w/v) non-fat dry milk in TBS (10 mmol/L Tris, pH 8; 150 mmol/L NaCl) plus 0.05% (w/v) Tween 20. After blocking, the […] The membrane was incubated overnight at 4° C. with rabbit polyclonal anti-α-MSH antibodies (1:1000, Phoenix Pharmaceuticals). After three washes in a blocking solution of 5% (w/v) non-fat dry milk in TBS/0.05% Tween 20, membranes were incubated for 1 h with peroxidase-conjugated anti rabbit IgG (1:1000, SantaCruz Biotechnology). […]
Tissues were incubated with extracted buffer (PBS+protease inhibitor (1%)). The volume added depends of sample quantity. […] The supernatant was stored at −80° C. if not analysed immediately. […]

MC1R = MC1R (Mus musculus, UniProt Q01727); conditions: Ericson et al., 2015; cited from earlier work
MC3R = MC3R (Mus musculus, UniProt P33033); conditions: Ericson et al., 2015; cited from earlier work
MCSR = MCSR (Mus musculus, UniProt P41149); conditions: Ericson et al., 2015; cited from earlier work
MC4R = MC4R (Mus musculus, UniProt P56450); conditions: Ericson et al., 2015; cited from earlier work
Chain of MC4R (P56450 whole entry): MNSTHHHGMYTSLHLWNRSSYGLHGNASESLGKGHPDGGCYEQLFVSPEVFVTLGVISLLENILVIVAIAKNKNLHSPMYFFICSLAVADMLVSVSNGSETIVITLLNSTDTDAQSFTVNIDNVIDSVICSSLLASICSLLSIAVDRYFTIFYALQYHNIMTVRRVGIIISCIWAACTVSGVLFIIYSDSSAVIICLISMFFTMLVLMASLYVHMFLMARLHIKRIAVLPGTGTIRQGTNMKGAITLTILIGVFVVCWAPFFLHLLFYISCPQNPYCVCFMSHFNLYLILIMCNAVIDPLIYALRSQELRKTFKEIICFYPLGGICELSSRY

Chain of MC3R (P33033 whole entry): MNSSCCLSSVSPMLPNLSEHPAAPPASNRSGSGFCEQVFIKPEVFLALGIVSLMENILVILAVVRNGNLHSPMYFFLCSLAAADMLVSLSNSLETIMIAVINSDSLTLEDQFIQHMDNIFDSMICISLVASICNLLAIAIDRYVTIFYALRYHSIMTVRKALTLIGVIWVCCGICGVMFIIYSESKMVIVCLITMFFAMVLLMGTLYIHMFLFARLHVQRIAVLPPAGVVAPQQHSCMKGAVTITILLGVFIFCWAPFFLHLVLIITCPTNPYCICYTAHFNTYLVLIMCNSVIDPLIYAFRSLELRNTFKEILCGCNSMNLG
Chain of MCSR (P41149 whole entry): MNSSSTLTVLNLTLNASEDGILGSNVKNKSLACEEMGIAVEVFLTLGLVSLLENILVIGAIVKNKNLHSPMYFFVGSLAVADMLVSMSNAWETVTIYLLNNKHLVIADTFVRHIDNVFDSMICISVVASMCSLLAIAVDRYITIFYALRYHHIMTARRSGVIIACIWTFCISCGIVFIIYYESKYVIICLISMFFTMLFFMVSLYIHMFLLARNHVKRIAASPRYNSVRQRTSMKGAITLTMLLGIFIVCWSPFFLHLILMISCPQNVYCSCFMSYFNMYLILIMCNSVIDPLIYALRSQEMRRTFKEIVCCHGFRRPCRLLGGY
Chain of MC1R (Q01727 whole entry): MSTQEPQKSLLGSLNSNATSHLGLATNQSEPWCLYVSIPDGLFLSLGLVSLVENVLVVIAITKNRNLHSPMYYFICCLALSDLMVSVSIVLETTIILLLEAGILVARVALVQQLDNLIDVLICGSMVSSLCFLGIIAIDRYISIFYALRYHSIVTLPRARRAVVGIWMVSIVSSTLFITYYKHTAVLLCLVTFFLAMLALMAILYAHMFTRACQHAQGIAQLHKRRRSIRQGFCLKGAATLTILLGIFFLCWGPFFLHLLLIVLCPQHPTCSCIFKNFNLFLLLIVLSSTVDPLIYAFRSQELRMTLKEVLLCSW

**Q.** For “full-length ClpB: chaperone protein ClpB (caseinolytic protease B), ˜96 kDa, 857 amino acids, from E. Coli K12”, which “PYY secretion compared to the control” value [1] is on record?
**A.** increase PYY secretion

**Q.** What about the “food intake in mice, oral administration” value [2] of the same substance?
**A.** no such effect

**Q.** With “fragment of ˜25 kDa: sequence of ClpB from amino acid 537 to amino acid 756 (SEQ ID NO: 22), produced by trypsinisation of ClpB” as the substance, how does the “PYY secretion compared to the control” value [1] read?
**A.** increase PYY secretion

**Q.** What about the “duration of the decrease of food intake” value ([2]; i.p. 2 pmol and oral 60 pmol in 200 μL, FIGS. 7 and 8) of the same substance?
**A.** at least 90 min

**Q.** And the “food intake in mice” value ([2]; i.p. 2 pmol and oral 60 pmol in 200 μL, FIGS. 7 and 8, compared with full-length ClpB protein)?
**A.** decreases food intake in mice at least as much as the full-length ClpB protein

**Q.** And the “food intake in mice, oral administration” value [2]?
**A.** decreases food intake

**Q.** What about the “recognition by anti-α-MSH antibodies (Western blot)” value (anti-α-MSH antibody) of the same substance?
**A.** revealed with polyclonal anti-α-MSH

**Q.** Which MC1R agonist activity (MC1R) does the source give for “AEIAEVLARWTGIPV (ClpB fragment) [modified short ClpB fragment studied by Ericson et al]” here?
**A.** full micromolar MC1R agonist

**Q.** What about the “activity on MC3R” value (MC3R) of the same substance?
**A.** partial activities

**Q.** And the “activity on MCSR” value (MCSR)?
**A.** partial activities

**Q.** And the “activity on MC4R” value (MC4R)?
**A.** not on MC4R
